Source: article PMC7086363, “All-stage precisional glioma targeted therapy enabled by a well-designed D-peptide” (Theranostics, 2020)
Blank lines part the entries; values can stand above or below the molecule they belong to. Where a SMILES comes first, the peptide text is derived from it. Where no end group is shown, it is not given here. [ ]: non-standard residue; d: D form. Ahx = NCCCCCC(=O)O

Key:
intracranial U87 glioma = test: Kaplan-Meier survival of intracranial glioma bearing nude mice; assay type: in vivo; conditions: n = 8
Description: The intracranial glioma bearing mice were used to evaluate the anti-glioma efficacy of various therapeutic regimen.
Concurrent combination chemotherapy has been emerging as a promising approach to improve the efficacy of cancer therapy [29]-[31]. Thus, ^DWVAP Micelle/PTL was used in combination with TMZ and ^DWVAP Micelle/PTX respectively in the present study. For TMZ dosage regimen, mice were randomly divided into four groups (n = 8) and treated with 100 μL of saline, ^DWVAP Micelle/PTL (5 mg/kg), TMZ (10 mg/kg) and ^DWVAP Micelle/PTL plus TMZ (5 mg/kg and 10 mg/kg, respectively) via oral gavage or tail vein. […] Compared with TMZ, the combinational therapy prolonged the median survival time by 2.10 times (Figure 6A). […] The slices were also stained with anti-CD133 antibody to quantify glioma stem cells. […]
Figure 6 Kaplan-Meier survival curves of intracranial glioblastoma-implanted nude mice treated with different regimens. […] Quantification of angiogenesis inhibition in tumors with different formulations in comparison to saline group (D). […] Quantification of TUNEL positive cells in tumors with different formulations in comparison to saline group (F). […] Quantification of tumor stem cell inhibition in tumors with different formulations in comparison to saline group (H). […]

[1] = test system: NF-κB p65 nuclear translocation in U87 cells; test: NF-κB activation and nuclear translocation assay (immunofluorescence); assay type: cell-based; conditions: 24 h treatment, Figure 7D-F
From the text: NF-κB plays a pivotal role in tumorigenesis through multiple signaling pathways. Aberrant activation of NF-κB has been observed in various types of cancer. Constitutive activation of NF-κB often causes bad response or resistance to chemotherapeutics, tumor recurrence, and poor outcome of treatment. Conversely, inhibition of NF-κB could sensitize the glioma cells to chemotherapy. The combination of PTL with PTX and TMZ in the present study enhanced anti-glioma efficacy in experimental animals. Since PTL is a potent inhibitor of NF-κB, the inhibitory activities of different PTL formulations on NF-κB pathway were examined. Immunofluorescence was used to detect NF-κB activation and nuclear translocation. After treatment with different formulations for 24 h, cells were processed for confocal fluorescence microscopic imaging. […] In addition, we also analyzed the p65 protein level in the nucleus of U87 cells by western blotting (Figure S7) and the results were consistent with immunofluorescence.
NF-κB activation and nuclear translocation assay was performed according to the reagent manufacturer's instructions (Beyotime Biotech, China). Briefly, cells were seeded in four-well disk and then treated with different drug loaded micelles or free drug alone or in combinations for 24 h. […] The protein concentrations were quantified using BCA Protein Assay Kit (Thermo Fisher Scientific). […]

HUVECs = test: Cellular internalization of fluorescein labelled peptides in HUVECs (flow cytometry); assay type: cell-based, human; conditions: 4 hours, Figure S1
Description: (§1) The targeting ability of ^DWVAP was evaluated in primary rat brain capillary endothelial cells (BCECs), HUVECs and U87 cells. […] OPC cells were previously proven as a cell line of glioma cell-of-origin with under-appreciated proliferative and plastic potentials. OPC cells were used here to evaluate the GSCs targeting effect of the developed peptides. […] In vivo, near-infrared dye Cy7 was conjugated with peptides and the conjugates were intravenously injected via the tail vein to test the targeting effect of ^DWVAP.
(§2) Brain capillary endothelial cells (BCEC), U87 cells and HUVEC cells were used to investigate the peptides targeting ability since they were main component of BBB, tumor and tumor vessels respectively. OPC cells were used to evaluate the glioma stem cell targeting ability in vitro [38]. Cellular uptake behavior was observed by the confocal microscope and the fluorescent intensity was captured by flow cytometry 4 hours after pre-incubation with different fluorescein labelled peptides.

U87 cells = test: Cellular internalization of fluorescein labelled peptides in U87 cells (flow cytometry); assay type: cell-based; conditions: 4 hours, Figure S1
Description: as §1, §2

OPC cells = test: Cellular internalization of fluorescein labelled peptides in OPC cells (GSC targeting); assay type: cell-based; conditions: confocal microscopy, Figure 2E
Description: as §1, §2

[2] = target: T1, Recombinant human GRP78 protein (human, UniProt P11021 19-654); test: SPR; Biacore T200; recombinant human GRP78 amine-coupled to a CM5 sensor chip; peptides in 2-fold serial dilution injected at 30 µL/min; buffer HBS-N or HBS-EP (methods); conditions: both partners purified
T1 construct: GRP78, human, recombinant; No catalogue number, tag or limits printed; source: bought: Abcam
T1 sequence (P11021 19-654): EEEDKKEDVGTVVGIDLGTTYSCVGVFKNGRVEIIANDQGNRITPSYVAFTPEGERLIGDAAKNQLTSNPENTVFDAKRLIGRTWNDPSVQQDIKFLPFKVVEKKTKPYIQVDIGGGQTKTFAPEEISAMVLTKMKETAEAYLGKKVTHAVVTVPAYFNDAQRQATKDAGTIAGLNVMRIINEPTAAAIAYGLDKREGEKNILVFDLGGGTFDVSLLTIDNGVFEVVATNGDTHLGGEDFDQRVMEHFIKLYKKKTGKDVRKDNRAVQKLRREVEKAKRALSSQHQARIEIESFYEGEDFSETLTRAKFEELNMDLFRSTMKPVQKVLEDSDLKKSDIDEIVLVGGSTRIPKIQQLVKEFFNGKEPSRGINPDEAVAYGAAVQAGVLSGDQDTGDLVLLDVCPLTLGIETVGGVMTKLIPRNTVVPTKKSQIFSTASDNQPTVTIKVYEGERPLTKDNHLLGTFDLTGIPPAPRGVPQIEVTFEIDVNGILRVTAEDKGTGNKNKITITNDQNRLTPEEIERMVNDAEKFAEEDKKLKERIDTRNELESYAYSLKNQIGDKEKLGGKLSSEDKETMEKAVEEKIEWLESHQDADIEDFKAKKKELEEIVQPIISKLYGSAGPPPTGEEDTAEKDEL

Molecule: CC(=O)O[C@H]1C(=O)[C@@]2(C)[C@H]([C@H](OC(=O)c3ccccc3)[C@]3(O)C[C@H](OC(=O)[C@H](O)[C@@H](NC(=O)c4ccccc4)c4ccccc4)C(C)=C1C3(C)C)[C@]1(OC(C)=O)CO[C@@H]1C[C@@H]2O [Taxol, Paclitaxel]
- median survival time (intracranial U87 glioma; Figure S5A, four injections, 6 mg/kg PTX each, at 6, 9, 12 and 15 days after implantation): 20 days

Molecule: C=C1C(=O)O[C@H]2[C@H]1CC/C(C)=C/CC[C@@]1(C)O[C@@H]21 [PTL, Parthenolide]
- median survival (intracranial U87 glioma; Figure S5B, 5 mg/kg PTL at 6, 8, 10, 12 and 14 days post-tumor implantation, saline 29.5 days): 32 days
- p65 nuclear translocation [1]: inhibition of p65

Molecule: CC(C)[C@@H](NC(=O)[C@@H](CCCNC(=N)N)NC(=O)[C@H](NC(=O)[C@@H](CC(N)=O)NC(=O)[C@H](N)CO)[C@H](C)O)C(=O)N[C@H](C)C(=O)N1CCC[C@@H]1C(=O)N[C@H](CS)C(=O)O [^DVAP] (HELM PEPTIDE1{[dS].[dN].[dT].[dR].[dV].[dA].[dP].[dC]}$$$$V2.0; N-terminus and C-terminus assumed)
- fluorescence-positive HUVECs (HUVECs): > 80%
- fluorescence-positive U87 cells (U87 cells): More than 90%
- uptake by OPC cells (OPC cells): effectively taken up

- Kd [2]: 686 nM
B1: "Y-shaped" ^DWVAP peptide (peptide)
peptide: [dS][dN][dT][dR][dV][dA][dP][dC][Ahx][dW][dS][dW]G[dP][dY][dS]
modifications: not fully specified
notes: ^DVAP stretch (all-D) with D-Cys, ligand of GRP78; ^DWSW stretch (all-D), quorum-sensing peptide; joined to the first stretch through aminocaproic acid (Ahx), which has no one-letter code; also called ^DWVAP-Cys; ^DS^DN^DT^DR^DV^DA^DP^DC-Ahx-^DW^DS^DW^DG^DP^DY^DS; source: synthetic peptide (solid phase peptide synthesis)

- Kd [2]: 102 nM
B2: ^DVAP peptide (peptide)
peptide: [dS][dN][dT][dR][dV][dA][dP][dC]
notes: all-D peptide ligand of GRP78; also called ^DS^DN^DT^DR^DV^DA^DP; ^DS^DN^DT^DR^DV^DA^DP^DC; source: synthetic peptide, bought: Karebay Biochem
